No end group written: not given here.

One assay deals with T1, DPB1*04:01 (Homo sapiens, UniProt P04440).
T1 sequence (P04440 30-258): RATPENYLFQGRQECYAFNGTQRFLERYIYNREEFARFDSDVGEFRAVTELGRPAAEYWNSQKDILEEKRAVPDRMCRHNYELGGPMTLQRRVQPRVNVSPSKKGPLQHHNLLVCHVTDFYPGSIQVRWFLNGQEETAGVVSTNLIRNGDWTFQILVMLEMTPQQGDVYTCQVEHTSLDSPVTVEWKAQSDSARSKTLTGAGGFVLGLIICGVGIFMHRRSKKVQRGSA
T1 sequence (P20036 29-260 partner): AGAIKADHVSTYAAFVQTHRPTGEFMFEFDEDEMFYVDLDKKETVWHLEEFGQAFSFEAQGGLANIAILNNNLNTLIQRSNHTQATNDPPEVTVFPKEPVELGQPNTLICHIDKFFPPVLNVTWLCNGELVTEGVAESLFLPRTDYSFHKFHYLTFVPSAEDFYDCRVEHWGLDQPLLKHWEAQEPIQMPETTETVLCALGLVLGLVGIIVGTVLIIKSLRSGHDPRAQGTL
As to the kind of experiment: Peptide binding to HLA-DP allele, competition assay. An excerpt:
(§1) Peptide binding to MHC-II requires anchor residues in certain positions and thus can be predicted using computer algorithms. Affinity can be measured experimentally using a competition assay (1). Both are excellent screening tools. However, affinity must be measured separately for each MHC-II allele. Humans express molecules encoded in four different MHC-II loci, denominated HLA-DRB1, DRB3/4/5, DP and DQ. Allelic variation is large, and most people are heterozygous at each locus, thus expressing up to 8 relevant MHC-II alleles. CD4 T cell responses strictly require that the antigenic peptide binds to the relevant MHC-II.
(§2) To identify peptides that could potentially be used in human patients, 30 peptides were screened for binding to 26 HLA alleles by competition assay.

The next assay deals with DPB1*04:02. The description is as above. Also on record: species or system human.
Source text: as §1, §2

For another assay, the target named is DPB1*05:01. Described as above. Details: species or system human.
Source text: as §1, §2

The target in the next assay is DPB1*02:01. The assay is described as above. Also on record: species or system human.
Source text: as §1, §2

The target of another assay is DQB1*05:01. As to the kind of experiment: Peptide binding to HLA-DQ allele, competition assay. Details: species or system human.
Source text: as §1, §2

Another assay addresses DQB1*06:02. The assay is described as above. Also on record: species or system human.
Source text: as §1, §2

Another assay has as its target DPB1*14:01. As to the kind of experiment: Peptide binding to HLA-DP allele, competition assay. Details: species or system human.
Source text: as §1, §2

As to `CC[C@H](C)[C@H](N)C(=O)N[C@@H](CC(=O)O)C(=O)N[C@@H](CC(C)C)C(=O)N[C@@H](CO)C(=O)N[C@H](C(=O)N[C@@H](CCC(N)=O)C(=O)N[C@@H](CC(N)=O)C(=O)N[C@@H](Cc1ccc(O)cc1)C(=O)N[C@@H](Cc1c[nH]cn1)C(=O)N[C@H](C(=O)N[C@@H](Cc1ccccc1)C(=O)N[C@@H](CC(C)C)C(=O)N[C@H](C(=O)N[C@@H](Cc1ccc(O)cc1)C(=O)N[C@H](C(=O)O)[C@@H](C)CC)[C@@H](C)CC)[C@@H](C)O)[C@@H](C)CC` [Peptide 3563.0029], the IC50 at DPB1*04:01 turned out to be 25000 nM; at DPB1*04:02, 15600 nM; at DPB1*05:01, 9160 nM; at DPB1*02:01 it was 23200 nM.

As to `CC[C@H](C)[C@H](NC(=O)[C@H](Cc1ccc(O)cc1)NC(=O)[C@H](Cc1c[nH]cn1)NC(=O)[C@H](CC(C)C)NC(=O)[C@@H](N)Cc1ccccc1)C(=O)N[C@@H](Cc1ccccc1)C(=O)N[C@@H](CCSC)C(=O)N[C@@H](CCC(=O)O)C(=O)N[C@@H](CC(N)=O)C(=O)N[C@@H](C)C(=O)N[C@@H](Cc1ccccc1)C(=O)N[C@@H](CCC(=O)O)C(=O)N[C@@H](CC(C)C)C(=O)N1CCC[C@H]1C(=O)N[C@H](C(=O)O)[C@@H](C)O` [Peptide 3563.0006], the IC50 at DPB1*04:01 was determined as 32 nM; on DPB1*04:02 it was 4.4 nM; at DPB1*02:01 it was 40 nM; at DQB1*05:01 it was 39 nM.

Regarding `CC(C)C[C@H](NC(=O)[C@H](CC(C)C)NC(=O)[C@H](CC(C)C)NC(=O)[C@H](CC(C)C)NC(=O)[C@H](C)NC(=O)[C@@H]1CCCN1C(=O)[C@H](CC(C)C)NC(=O)[C@H](C)NC(=O)[C@H](CC(C)C)NC(=O)[C@H](CC(C)C)NC(=O)[C@H](C)NC(=O)[C@H](CC(C)C)NC(=O)[C@H](CC(C)C)NC(=O)[C@H](C)NC(=O)[C@@H]1CCCN1)C(=O)O` [Peptide 3563.001], the IC50 at DPB1*04:01 was determined as 14000 nM; on DPB1*04:02, 1630 nM; on DPB1*05:01, 6560 nM; on DQB1*06:02, 24200 nM.

In the case of `CC[C@H](C)[C@H](NC(=O)CNC(=O)[C@H](CCSC)NC(=O)[C@H](CC(N)=O)NC(=O)[C@@H](NC(=O)[C@@H](NC(=O)[C@H](Cc1ccccc1)NC(=O)[C@H](CCC(=O)O)NC(=O)[C@@H](N)C(C)C)C(C)C)[C@@H](C)O)C(=O)N[C@H](C(=O)N[C@H](C(=O)N1CCC[C@H]1C(=O)N[C@@H](CC(=O)O)C(=O)N[C@@H](Cc1ccccc1)C(=O)N[C@@H](C)C(=O)O)[C@@H](C)CC)[C@@H](C)CC` [Peptide 3563.0007], the IC50 stood at 6690 nM on DPB1*05:01; 12 nM on DPB1*02:01; 15600 nM at DPB1*14:01; 8400 nM at DQB1*06:02; 228 nM on DQB1*05:01.

On to TLTAFGFASADLLEI [Peptide 3563.0005], for which the IC50 at DPB1*04:02 came to 5.3 nM; at DPB1*14:01 it was 847 nM; at DQB1*05:01, 118 nM.

Take `CC[C@H](C)[C@H](NC(=O)[C@H](CC(C)C)NC(=O)[C@H](CC(N)=O)NC(=O)[C@@H](NC(=O)[C@@H](NC(=O)[C@H](Cc1ccccc1)NC(=O)[C@H](Cc1c[nH]cn1)NC(=O)[C@H](CCCCN)NC(=O)[C@@H](NC(=O)[C@@H](N)Cc1c[nH]cn1)C(C)C)C(C)C)[C@@H](C)CC)C(=O)NCC(=O)N[C@@H](CC(=O)O)C(=O)N[C@@H](Cc1ccccc1)C(=O)N[C@@H](CCC(=O)O)C(=O)N[C@H](C(=O)O)C(C)C` [Peptide 3563.0014]: the 50% inhibitory concentration (IC50) on DPB1*04:01 worked out at 7 nM; at DPB1*04:02, 148 nM; on DPB1*05:01 it was 818 nM; at DPB1*02:01, 58 nM; on DPB1*14:01 it was 12200 nM; at DQB1*06:02 it was 13600 nM. Further, on DQB1*05:01, the IC50 is 3.7 nM.

With `CC[C@H](C)[C@H](NC(=O)[C@H](CC(=O)O)NC(=O)[C@H](CC(C)C)NC(=O)[C@H](CC(C)C)NC(=O)[C@H](CCC(=O)O)NC(=O)[C@@H](N)CCC(N)=O)C(=O)N[C@@H](C)C(=O)N[C@@H](CC(N)=O)C(=O)N[C@@H](Cc1ccc(O)cc1)C(=O)N[C@@H](CC(C)C)C(=O)N[C@@H](CCSC)C(=O)N[C@@H](CCC(=O)O)C(=O)N[C@@H](CCC(N)=O)C(=O)N[C@H](C(=O)N[C@@H](CCC(N)=O)C(=O)O)[C@@H](C)CC` [Peptide 3563.0003], the IC50 at DPB1*04:01 was 2580 nM; on DPB1*04:02, 182 nM; at DPB1*02:01 it was 1780 nM; at DQB1*06:02, 2430 nM; on DQB1*05:01, 4 nM.

As for `CC[C@H](C)[C@H](NC(=O)[C@H](CO)NC(=O)[C@H](Cc1ccc(O)cc1)NC(=O)[C@H](CC(C)C)NC(=O)[C@H](CCCCN)NC(=O)CN)C(=O)N[C@@H](CC(C)C)C(=O)N[C@@H](CCCCN)C(=O)N[C@H](C(=O)N[C@@H](CCC(N)=O)C(=O)N[C@@H](CO)C(=O)N1CCC[C@H]1C(=O)N[C@@H](CC(C)C)C(=O)N[C@@H](Cc1ccccc1)C(=O)N[C@H](C(=O)O)[C@@H](C)O)[C@@H](C)CC` [Peptide 3563.0016], the half-inhibitory concentration (IC50) on DPB1*04:01 was 2100 nM; on DPB1*04:02, 419 nM; on DPB1*05:01 it was 2380 nM; at DPB1*02:01, 9070 nM; on DPB1*14:01, 7020 nM; at DQB1*05:01, 6000 nM.

On to LSQLTYMIQFDQYI [Peptide 3563.0012], for which the half-inhibitory concentration (IC50) on DPB1*04:02 was found to be 622 nM; on DPB1*05:01 it was 4120 nM; at DPB1*02:01 it was 576 nM; on DQB1*06:02 it was 43100 nM; on DQB1*05:01, 28 nM.

As to `CC[C@H](C)[C@H](NC(=O)[C@H](CC(C)C)NC(=O)[C@@H](N)Cc1ccccc1)C(=O)N[C@@H](Cc1ccc(O)cc1)C(=O)N[C@H](C(=O)N[C@H](C(=O)N[C@@H](CCC(=O)O)C(=O)N[C@@H](CC(C)C)C(=O)N[C@@H](CC(C)C)C(=O)N[C@@H](CCCCN)C(=O)N[C@@H](CCCCN)C(=O)N[C@@H](CC(C)C)C(=O)N[C@@H](CCC(N)=O)C(=O)N[C@@H](CO)C(=O)N[C@H](C(=O)O)[C@@H](C)O)[C@@H](C)O)[C@@H](C)CC` [Peptide 3563.0030], the IC50 at DPB1*04:01 was 215 nM; on DPB1*04:02, 8.6 nM; at DPB1*05:01, 32 nM; on DPB1*02:01 it was 96 nM; on DQB1*06:02 it was 5900 nM; on DQB1*05:01, 4760 nM.

On to `CC(C)C[C@H](NC(=O)[C@H](C)NC(=O)[C@H](Cc1ccccc1)NC(=O)[C@H](CO)NC(=O)[C@H](CO)NC(=O)[C@@H](NC(=O)[C@H](CCCNC(=N)N)NC(=O)[C@H](CC(C)C)NC(=O)[C@H](CCCCN)NC(=O)[C@H](CCCCN)NC(=O)[C@@H](N)Cc1ccc(O)cc1)[C@@H](C)O)C(=O)N[C@@H](CC(N)=O)C(=O)N[C@@H](CC(C)C)C(=O)N1CCC[C@H]1C(=O)N[C@H](C(=O)O)[C@@H](C)O` [Peptide 3563.0022], for which the half-inhibitory concentration (IC50) on DPB1*04:01 came to 2.1 nM; on DPB1*04:02, 67 nM; at DPB1*05:01, 221 nM; at DPB1*02:01, 3.3 nM; on DPB1*14:01, 15 nM; at DQB1*06:02 it was 2650 nM.

As to `CC[C@H](C)[C@H](NC(=O)[C@H](Cc1ccc(O)cc1)NC(=O)[C@H](CCC(N)=O)NC(=O)[C@H](Cc1c[nH]cn1)NC(=O)[C@@H](NC(=O)[C@@H](N)CCC(N)=O)[C@@H](C)CC)C(=O)N[C@@H](CCSC)C(=O)N[C@@H](C)C(=O)N[C@@H](CC(C)C)C(=O)N[C@@H](CCCNC(=N)N)C(=O)N[C@@H](CCC(=O)O)C(=O)N[C@@H](CCC(=O)O)C(=O)N[C@@H](Cc1ccc(O)cc1)C(=O)N[C@@H](Cc1ccccc1)C(=O)N[C@@H](CC(=O)O)C(=O)O` [Peptide 3563.0027], the IC50 on DPB1*04:01 was determined as 817 nM; at DPB1*04:02, 51 nM; at DPB1*05:01 it was 122 nM; on DPB1*02:01, 80 nM; on DPB1*14:01, 1820 nM; on DQB1*06:02, 897 nM.

As a reminder, the IC50 is the concentration needed to halve the response being measured. A lower IC50 goes with higher potency.

The values above are taken from patent US12448433B2, “Human ApoB100 epitopes, methods and uses for modulating inflammatory responses, and treating adverse cardiovascular events, disease and atherosclerosis” (LA JOLLA INSTITUTE FOR ALLERGY AND IMMUNOLOGY, priority 2015, dated 2025).
